Patent US8362013B2, “Salt of ABT-263 and solid-state forms thereof” (AbbVie Inc., priority 2009, dated 2013)

Experiments:
[1] = stability in an oxidative environment; format: physicochemical
[2] = test system: pro-apoptotic effects of other chemotherapeutic agents; details: cited from earlier work
[3] = test system: small-cell lung cancer (SCLC); details: cited from earlier work
lymphoid malignancies = details: cited from earlier work

| Compound | degradation in an oxidative environment [1] | potentiation of pro-apoptotic effects of other chemotherapeutic agents [2] | single-agent activity [3] | single-agent activity (lymphoid malignancies) |
| --- | --- | --- | --- | --- |
| CC1(C)CCC(c2ccc(Cl)cc2)=C(CN2CCN(c3ccc(C(=O)NS(=O)(=O)c4ccc(N[C@H](CCN5CCOCC5)CSc5ccccc5)c(S(=O)(=O)C(F)(F)F)c4)cc3)CC2)C1 [ABT-263] | susceptible to degradation | – | – | – |
| CN(C)CC[C@H](CSc1ccccc1)Nc1ccc(S(=O)(=O)NC(=O)c2ccc(N3CCN(Cc4ccccc4-c4ccc(Cl)cc4)CC3)cc2)cc1[N+](=O)[O-] [ABT-737, N-(4-(4-((4′-chloro-(1,1′-biphenyl)-2-yl)methyl)piperazin-1-yl)benzoyl)-4-(((1R)-3-(dimethylamino)-1-((phenylsulfanyl)methyl)propyl)amino)-3-nitrobenzene-sulfonamide] | – | potentiates | single-agent activity | single-agent activity |
